Source: patent US11866416B2, “Streptococcus mutans glucosyl transferase inhibitors for dental caries therapy” (UAB Research Foundation, priority 2018, dated 2024)
Where two headings read alike, the source gives them in different places.

Assays:
[1] = target: GtfB catalytic domain (Streptococcus mutans serotype c (strain ATCC 700610 / UA159), UniProt P08987); assay: OctetRed96 binding kinetics, GtfB; conditions: 1:1 binding model
Description: To determine if the inhibition is attributed by the binding of the lead compound to the enzymes, the OctetRed96 system was used to characterize protein-small molecule binding kinetics. The his-tagged catalytic domains of GtfB and GtC were immobilized separately onto an anti-penta-HIS (HIS1K) biosensor which consists of high affinity, high specificity penta-his antibody pre-immobilized on a fiber optic biosensor. This sensor was then exposed to varying concentrations of #G43.
Expression and purification of GtfB and GtfC catalytic domains. The DNA fragment coding for either GtfB catalytic (residues 268 aa-1074 aa) or GtfC-catalytic (residues 295 aa-1103 aa) was PCR amplified with primer sets of GtfB-BamH1-F and GtfB-Xho1-R, GtfC-BamH1-F and GtfC-Xhol1-R respectively using S. mutans genomic DNA as a template. Each amplified fragment was cloned into pET-sumo vector respectively and transformed in Escherichia coli BL21(DE3). The recombinant strain grown to OD600=0.8 in LB medium was induced with 0.1 mM IPTG at 18° C. overnight. Cell lysates prepared form the overnight grown E. coli cells were subjected to protein purification using HiTrap™ Column (Ni^2+ affinity) followed by gel filtration experiments as described (Zhu, F. et al. Structural and functional analysis of a new subfamily of glycosyltransferases required for glycosylation of serine-rich streptococcal adhesins. The Journal of biological chemistry 286, 27048-27057, doi:10.1074/jbc.M110.208629 (2011); Zhang, H. et al. The highly conserved domain of unknown function 1792 has a distinct glycosyltransferase fold. Nature communications 5, 4339, doi:10.1038/ncomms5339 (2014)).
Octet Red analysis. Octet full kinetic binding analysis was performed for binding of #G43 to GtfB and GtfC. The rate constant, KD, was determined using the Octet® Red96 system (ForteBio, Menlo Park, Calif.). Phosphate buffer with 3.5% (w/v) DMSO was used. The proteins were captured on dip-and-read Anti-Penta-HIS (HIS1K) Biosensor. These consist of high affinity, high specificity Penta-His antibody from Qiagen pre-immobilized on a fiber optic biosensor. The binding of #G43 at 3-fold serial dilutions in phosphate buffer from 200, 66.6, 22.2, 7.4, 2.5 to 0 μM was assessed. The ForteBio Octet analysis software (ForteBio, Menlo Park, Calif.) was used to generate the sensorgram and the accuracy of the analysis.
OctetRed analysis. […] GtfC and GtfB were purified. The Octet® Red96 system (ForteBio, Menlo Park, Calif.) was used to determine the rate constant, KD. […] Sensorgrams and the accuracy of the analysis was calculated using the ForteBio OctetRed analysis software (ForteBio, Menlo Park, Calif.).

[2] = tested on: S. mutans biofilm; assay: S. mutans biofilm formation and inhibition assay (96-well plates, crystal violet); format: cell-based, Streptococcus mutans; conditions: for IC50: Streptococcus mutans
[3] = tested on: S. mutans Gtfs; assay: Gtf zymographic assay with SDS-PAGE; format: biochemical, Streptococcus mutans; conditions: for % Inhibition of GTFs at 10 μM: S. mutans GTF zymogram assay, NI = no inhibition up to 10 μM; for Gtf enzyme inhibitory activity, glucan bands in zymogram / production of Gtfs, protein level on SDS-PAGE: 50 μM added to cultures
Description: A well-established zymographic assay was used to determine enzymatic activity of Gtfs (Mattos-Graner et al. (2004) J. Clin. Microbiol. 42, […]). In brief, overnight S. mutans UA159 cultures were diluted 1:100 in fresh 5 mL THB with 50 μL of selective compounds at a series of concentrations. Treated bacteria were grown to OD470 of 1.0, and spun down by centrifugation at 4° C., and culture supernatants were collected and filtered through a 0.22-μm-pore-size filter membrane to remove residual bacterial cells and dialyzed at 4° C. against 0.02 M sodium phosphate buffer (pH 6.8), with 10 μM phenylmethylsulfonyl fluoride (PMSF), followed by a second dialysis against 0.2 mM sodium phosphate containing 10 μM PMSF. After dialysis, 4 mL of samples were concentrated to 40 μL by 100K Amicon Ultra-4 centrifugal filter (Merck Millipore Ltd.). For electrophoresis and zymographic analysis, 10 μL of each concentrated culture supernatant was applied to 8% SDS-PAGE in duplicate. One gel was used for protein staining with Coomassie blue dye, while the other one was subjected to zymographic assay as described (Mattos-Graner et al. (2004) J. Clin. Microbiol. 42, […]). The resultant white opaque glucan bands were visualized against a black background.
Inhibition of the activity of Gtfs determined by zymographic assays. Well established zymographic assay was used to determine enzymatic activity of Gtfs. In brief, overnight S. mutans UA159 cultures were diluted 1:100 in fresh 5 mL THB. Bacteria were grown to OD470 of 1.0, and spun down by centrifugation at 4° C. and culture supernatants were collected and filtered through a 0.22-μm-pore-size filter membrane to remove residual bacterial cells and dialyzed at 4° C. against 0.02 M sodium phosphate buffer (pH 6.8), with 10 μM phenylmethylsulfonyl fluoride (PMSF), followed by a second dialysis against 0.2 mM sodium phosphate containing 10 μM PMSF. After dialysis, 4 mL of samples were concentrated to 40 μL by 100K Amicon Ultra-4 centrifugal filter (Merk Millipore Ltd.). For electrophoresis and zymographic analysis, 10 μL of each concentrated culture supernatant was applied to 8% SDS-PAGE in duplicate. One gel was used for protein staining with Coomassie blue dye, while the other one was subjected to zymographic assay. For zymogram analysis, following electrophoretic separation, gels were washed twice for 15 min each with renaturing buffer containing 2.5% Triton X-100. Gels were then incubated for 18 h at 37° C. with 0.2 M sodium phosphate buffer (pH 6.5) containing 0.2% dextran T70, 5% sucrose, and varying concentrations of the small molecule inhibitors. The reactions were stopped by washing gels with distilled water at 4° C. for 10 min, and digital images of the resultant white opaque glucan bands were visualized against a black background and captured using a digital camera.
Inhibition of the activity of Gtfs determined by zymographic assays. A well-established zymographic assay was used to determine enzymatic activity of Gtfs (Mattos-Graner, R. O., Napimoga, M. H., Fukushima, K., Duncan, M. J., Smith, D. J., J Clin Microbiol, 2004, 42, 4586). In brief, overnight S. mutans UA159 cultures were diluted 1:100 in fresh 5 mL THB with 50 μL of selective compounds at a series of concentrations. Treated bacteria were grown to OD470 of 1.0, and spun down by centrifugation at 4° C., and culture supernatants were collected and filtered through a 0.22-μm-pore-size filter membrane to remove residual bacterial cells and dialyzed at 4° C. against 0.02 M sodium phosphate buffer (pH 6.8), with 10 μM phenylmethylsulfonyl fluoride (PMSF), followed by a second dialysis against 0.2 mM sodium phosphate containing 10 μM PMSF. After dialysis, 4 mL of samples were concentrated to 40 μL by 100K Amicon Ultra-4 centrifugal filter (Merk Millipore Ltd.). For electrophoresis and zymographic analysis, 10 μL of each concentrated culture supernatant was applied to 8% SDS-PAGE in duplicate. […]

[4] = tested on: S. mutans; assay: microbe, parasite or virus in culture; format: cell-based, Streptococcus mutans; conditions: for MIC50 / IC50: Streptococcus mutans; for MIC50: Table 2, >300 = no inhibition up to 300 μM, read-out: Growth Inhibition MIC50; for IC50: Table 7, synthesized analogs of compound 9, read-out: Growth IC50; for SI (selectivity index): Table 7, growth IC50 value divided by biofilm IC50 value
In short: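 Mid-exponential cultures (OD470 0.6) in THB were exposed to compound concentrations for 16 h, with growth read at OD470 and normalised to 1% DMSO control (100%). CFU/mL were also counted after 24 h at 37 °C and compared with the DMSO control.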

[5] = tested on: S. mutans colonization; assay: Sucrose-dependent Drosophila colonization model; format: in vivo; conditions: chalcones; 100 μM or 50 μM
Description: Briefly, Gfp tagged S. mutans bacteria were infected into flies along with the treatment appropriate compound at 100 μM in a feeding-assay.
Mid-log phase THB cultures of Gfp-tagged (green fluorescent protein) S. mutans UA159 were spun down and resuspended in a solution containing 5% sucrose and 50 μM of the compound. 100 μL of resuspended cells were spotted onto a sterile filter that was placed on the surface of 5 mL of solidified 5% sucrose agar in a plastic vial. The vials were allowed to dry at room temperature for 30 minutes prior to addition of flies. Male Canton S flies (1-3 days old) were treated with antibiotics for 2 days and starved for 3 hours prior to the addition to vials supplied with S. mutans (10 flies per vial). The colonization of flies by Gfp-tagged strains were analyzed by Nikon elipse 90i microscope, equipped with an Epi-fluorescence and NIS elements AR imaging system.
The intensity of the fluorescence was measured in the guts of the flies fed with the Gfp tagged bacteria after 7 days of infection.
Cultures of Gfp-tagged (green fluorescent protein) S. mutans UA159 grown to middle log phase were spun down and re-suspended in a solution containing 5% sucrose and 50 μM of each compound. 100 μL of re-suspended cells were aliquoted onto a sterile filter that was placed on the surface of 5 mL of solidified 5% sucrose agar in a plastic vial. Upon the drying of the vials at room temperature for 30 min, the flies were introduced to the vessels. Male Canton S flies (1-3 days old) were treated with antibiotics for 2 days and starved for 3 h before the addition to vials supplied with S. mutans (10-14 flies per vial). Nikon elipse 90i microscope, equipped with an Epi-fluorescence and NIS elements AR imaging system was used to analyze the colonization of flies by Gfp-tagged strains.

[6] = Table 1, >500 = no inhibition up to 500 μM, read-out: Biofilm Inhibition IC50
[7] = Table 2, read-out: Biofilm Inhibition IC50
[8] = Table 5, >500 = no inhibition up to 500 μM, read-out: Biofilm Inhibition IC50
[9] = Table 7, synthesized analogs of compound 9, read-out: Biofilm IC50
[10] = read-out: S. mutans biofilm IC50

GtfB catalytic domain, sequence (P08987 268-1074 limits assumed): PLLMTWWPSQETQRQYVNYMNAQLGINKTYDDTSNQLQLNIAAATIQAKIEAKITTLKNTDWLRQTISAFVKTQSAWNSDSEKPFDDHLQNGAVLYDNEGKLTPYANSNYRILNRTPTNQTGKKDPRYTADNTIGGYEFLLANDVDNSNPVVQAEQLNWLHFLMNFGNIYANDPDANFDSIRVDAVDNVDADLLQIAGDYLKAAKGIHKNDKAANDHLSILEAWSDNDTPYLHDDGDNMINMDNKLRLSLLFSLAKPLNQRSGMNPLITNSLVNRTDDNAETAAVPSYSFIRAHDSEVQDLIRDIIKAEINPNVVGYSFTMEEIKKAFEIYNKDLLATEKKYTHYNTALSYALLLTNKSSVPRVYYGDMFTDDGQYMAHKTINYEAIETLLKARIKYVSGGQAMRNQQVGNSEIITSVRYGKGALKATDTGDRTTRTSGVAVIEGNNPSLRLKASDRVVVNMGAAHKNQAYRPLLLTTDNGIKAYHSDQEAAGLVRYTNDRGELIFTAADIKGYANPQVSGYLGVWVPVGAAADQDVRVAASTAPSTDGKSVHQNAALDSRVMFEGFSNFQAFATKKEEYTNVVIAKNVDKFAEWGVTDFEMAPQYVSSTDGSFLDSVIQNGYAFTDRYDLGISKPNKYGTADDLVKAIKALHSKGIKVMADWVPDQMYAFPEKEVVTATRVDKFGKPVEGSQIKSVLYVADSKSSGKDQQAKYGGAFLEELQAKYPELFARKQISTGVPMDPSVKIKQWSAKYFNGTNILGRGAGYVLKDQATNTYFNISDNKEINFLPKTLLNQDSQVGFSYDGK

SMILES	IC50 [2, 6] [µM]	IC50 [2, 7] [µM]	IC50 [2, 8] [µM]	MIC50 [4] [µM]	% Inhibition of GTFs at 10 μM [3] [%]	IC50 [2, 9] [µM]	melting point [°C]	IC50 [4] [µM]	SI (selectivity index) [4]	Gtf enzyme inhibitory activity, glucan bands in zymogram [3]	production of Gtfs, protein level on SDS-PAGE [3]	also measured
O=C(Nc1ccccc1)c1cc2cc([N+](=O)[O-])ccc2s1 [#G43-D]	–	–	–	–	–	–	–	–	–	–	–	Kd [1]: 68 µM; inhibition of S. mutans biofilms, biofilm assay and fluorescence microscopy ([2]; concentrations up to 200 μM): did not inhibit; glucan bands in zymographic assay ([3]; 50 μM, Gtfs from S. mutans UA159 supernatants): significantly reduced the ability to inhibit the glucan production
NC(=O)c1ccccc1NC(=O)c1cc2cc([N+](=O)[O-])ccc2s1 [Compound 3A]	16.7	16.7	16.7	> 300	30.3	–	–	–	–	–	–	–
O=C(/C=C/c1ccc(O)cc1O)c1ccc(O)cc1 [Compound 18b, (E)-3-(2,4-Dihydroxyphenyl)-1-(4-hydroxyphenyl)-2-propen-1-one]	–	–	–	–	–	162 ± 21	185 to 188	1060 ± 118	6.6	did not exhibit a drastic effect	showed an inhibitory effect on the production of Gtfs	–
COC(=O)c1ccc(NC(=O)c2cc3cc([N+](=O)[O-])ccc3s2)cc1 [Compound 3O]	9.6	9.6	9.6	> 300	54.8	–	–	–	–	–	–	–
O=C(/C=C/c1ccc(O)cc1O)c1cccc(O)c1 [Compound 9a, (E)-3-(2,4-Dihydroxyphenyl)-1-(3-hydroxyphenyl)-2-propen-1-one]	–	–	–	–	–	68 ± 3	73 to 75	639 ± 25	9.39	did not exhibit a drastic effect	–	IC50 [2, 10]: 68 µM; fluorescence of Gfp tagged S. mutans in fly guts after 7 days [5]: marked reduction in fluorescence; selectivity (index / fold) for biofilm over growth [4]: about 10
O=C(/C=C\c1ccc(O)cc1O)c1cccc(O)c1 [Compound 9b, (Z)-3-(2,4-Dihydroxyphenyl)-1-(3-hydroxyphenyl)-2-propen-1-one]	–	–	–	–	–	44 ± 5	164 to 167	468 ± 16	10.6	exhibit the best inhibitory effects	showed an inhibitory effect on the production of Gtfs	IC50 [2, 10]: 44 µM; fluorescence of Gfp tagged S. mutans in fly guts after 7 days [5]: marked reduction in fluorescence; selectivity (index / fold) for biofilm over growth [4]: about 10
O=C(Nc1ccccc1C(=O)O)c1cc2cc([N+](=O)[O-])ccc2s1 [Compound 3N]	89.3	89.3	89.3	> 300	30.1	–	–	–	–	–	–	–
O=C(/C=C\c1ccc(O)cc1O)c1ccc(O)cc1 [Compound 21b, (Z)-3-(2,4-Dihydroxyphenyl)-1-(4-hydroxyphenyl)-2-propen-1-one]	–	–	–	–	–	77 ± 8	185 to 187	782 ± 96	10.1	exhibit the best inhibitory effects	showed an inhibitory effect on the production of Gtfs	–
